For 17 compounds, viability results are on record in ChEMBL document CHEMBL5608109, “Hepatotoxicity screening of Donated Chemical Probes” (2024).

The test concerns Hepatocyte spheroids. In words: This assay model using primary human hepatocyte (PHH) spheroids, which are cultured in Williams E medium. After spheroid formation, cells are exposed to compounds in an FBS-free culture medium. […] Imaging is performed on an Opera Phenix High-Content Screening System, allowing quantification of proliferation as a readout for evaluating the effects of chemical probes on hepatocyte regeneration. The format is functional. As to conditions: read-out: Cell Viability; for viability at 1 µM: Concentration 1 uM; for viability at 10 µM: Concentration 10 uM; for viability at 0.1 µM: Concentration 0.1 uM.

For the compound `O=C(O)c1cc(-c2ccc(C3CCNCC3)cc2)c2ccc(-c3ccc(C(F)(F)F)cc3)cc2c1`, the viability at 1 µM is 91.3% (non-toxic) and the viability at 10 µM was 1.07% (toxic).

As to `CNC(=O)c1cc(C(=O)N[C@H]2[C@@H]3COC[C@@H]32)cc2c1O[C@H](CF)[C@H]2c1ccccc1` [GSK973], the viability at 1 µM is given as 103% (non-toxic) and the viability at 10 µM is listed as 88.7% (non-toxic).

Regarding `Cc1ccccc1Oc1cc(-n2c(=O)cc(C(F)(F)F)[nH]c2=O)c2ccccc2c1Cl` [BAY-069], the viability at 1 µM is 82.5% (non-toxic) and the viability at 10 µM was 62.5% (toxic).

On to `CCCCN(CCCC)C(=O)CN1C[C@H](c2cc(OC)c3c(c2)OCO3)[C@@H](C(=O)O)[C@@H]1CC(C)(C)CCC`, for which the viability at 0.1 µM is 107% (non-toxic) and the viability at 1 µM is 83.6% (non-toxic).

`COc1ccc2c(O[C@@H]3C[C@H]4C(=O)N[C@]5(C(=O)O)CC5/C=C\CCCCC[C@H](NC(=O)OC5CCCC5)C(=O)N4C3)cc(-c3csc(NC(=O)C(C)C)n3)nc2c1C` (some centres undefined) [BI 1230]: the viability at 1 µM is 106% (non-toxic) and the viability at 10 µM is on record as 0.711% (toxic).

On to `CN1CCN(C(=O)C(C)(C)c2ccc(C(=O)Nc3cn4cc(-c5ccncc5)ccc4n3)cc2)CC1` [T3-CLK], for which the viability at 1 µM is 109% (non-toxic) and the viability at 10 µM is on record as 1.01% (toxic).

On to `C[C@H](c1ccnc(Nc2nc3ccc(-c4cc(N(C)C)ncn4)cc3[nH]2)c1)N1CCN(C(=O)CC(F)(F)F)CC1` [BAY-985], for which the viability at 1 µM is 68.2% (non-toxic) and the viability at 10 µM was 38.1% (toxic).

In the case of `COc1nc2ccc([C@@](O)(c3ccccc3)C3CCN(C(C)=O)CC3)cc2c(Cl)c1Cc1ccc(-n2cccn2)cc1` [JNJ-54119936], the viability at 1 µM is listed as 116% (non-toxic) and the viability at 10 µM is 114% (non-toxic).

Regarding `O=C1c2ccc(Nc3ccc(F)cc3F)cc2CCc2ccc(OC[C@H](O)CO)cc21` [Skepinone-L], the viability at 1 µM is 94.6% (non-toxic) and the viability at 10 µM is recorded as 16.2% (toxic).

For the compound `CCCOc1ccc([C@H]2[C@H](C(=O)O)[C@@H](c3ccc4c(c3)OCO4)CN2CC(=O)Nc2c(CC)cccc2CC)cc1` [A-192621], the viability at 0.1 µM is 104% (non-toxic) and the viability at 1 µM is recorded as 110% (non-toxic).

As for `NC(=O)c1ccc2nc(-c3ccc(C4(N)CCC4)cc3)c(-c3ccccc3)n2n1` [BAY-1125976], the viability at 0.1 µM was 94.8% (non-toxic) and the viability at 1 µM is 75.2% (non-toxic).

For `CO[C@H]1CC[C@H](CNc2ccc(S(=O)(=O)NC(=O)c3ccc(N4CCN(CC5=C(c6ccc(Cl)cc6)CC(C)(C)CC5)CC4)cc3Oc3cnc4[nH]ccc4c3)cc2[N+](=O)[O-])CC1` [A-1211212], the viability at 1 µM is reported as 130% (non-toxic) and the viability at 10 µM was 126% (non-toxic).

`CCc1ccccc1C(=O)Nc1n[nH]c2c(C)c(F)c(C3C(C#N)=C(C)N(C)C(C)=C3C#N)cc12` [BAY-3827]: the viability at 1 µM is 110% (non-toxic) and the viability at 10 µM was 84.2% (non-toxic).

On to `c1ccc(N2CCN(Cc3nc4ccccc4[nH]3)CC2)nc1`, for which the viability at 1 µM is recorded as 117% (non-toxic) and the viability at 10 µM is on record as 110% (non-toxic).

For the compound `c1ccc2oc(-c3csc(C4CCN(Cc5nc6ncccc6[nH]5)CC4)n3)cc2c1`, the viability at 1 µM is listed as 88.5% (non-toxic) and the viability at 10 µM was 35.4% (toxic).

Turning to `CC(C)(O)[C@H](F)CN1Cc2cc(NC(=O)c3cnn4cccnc34)c(N3CCOCC3)cc2C1=O`, the viability at 1 µM is 118% (non-toxic) and the viability at 10 µM is recorded as 90.2% (non-toxic).

Turning to `CNC(=O)c1ccc(Nc2ncc(C(F)(F)F)c(NCc3nccnc3N(C)S(C)(=O)=O)n2)cc1` [DEFACTINIB], the viability at 0.1 µM is 46.1% (toxic) and the viability at 1 µM is on record as 55.4% (toxic).
